Data set [1] in a line: Zeta potential of substituted aminoethanol-DNA complexes. The note with it: in mV (unit assumed). In kind it is physicochemical. Here is the method:
(§1) Substituted aminoethanols lacking long chain hydrocarbon (aliphatic) substitutients were used to compact plasmid DNA into a colloidal dispersion in water. The size and zeta potential of the colloidal dispersions prepared were determined at different charge ratios for added cation (amine) to anion (DNA phosphate) and are shown in Table 1 and FIG. 4. The colloidal dispersions prepared permit compaction of the DNA into core complexes that are suitable for the invention.

Data set [2] in a line: Particle size of substituted aminoethanol-DNA complexes. Format: physicochemical.
Source text: The component streams intersect in the mixer, whereby shearing and mixing of the DNA and polymer are induced, whereby particles of a complex of DNA and polymer are formed. The resulting preparations may be tested for mean particle size in nanometers and distribution through dynamic light scattering using, for example, a Coulter N4 Plus Submicron Particle Sizer (Coulter Corporation, Miami, Fla.). Mean particle sizes and standard deviaitons can be determined by the unimodal and Size Distribution Processing (SDP), or “intensity” methods.
In the above methods, a laser is directed through a preparation of the particles. Dynamic light scattering is measured as a result of the Brownian motion of the particles. The dynamic light scattering-which is measured then is correlated-to particle size. In the unimodal method, the size distribution is determined by placing the sizes of the particles on a Gaussian curve. In the SDP method, size distribution is determined by a FORTRAN program called CONTIN. Such methods also are described further in the Coulter N4 Plus Submicron Particle Sizer Reference Manual (November 1995).
as §1

Data set [3] deals with mouse. In words: In vivo transfection with cationic lipid complexes containing fusogenic or steric surfactants. The settings on record: DOTAP:Chol core complexes; FIG. 7. The protocol:
All lipids of a formulation including surfactants were dissolved in an organic solvent such as cyclohexane and mixed together at the desired ratio and then lyophilized to dryness. For example, 45 mg DOTAP and 25 mg cholesterol, or 10 mg GC-030 and 4.74 mg cholesterol were used for DOTAP:Chol and GC-030:Chol, respectively. Double distilled water was added to the lipid cake to give a final concentration of 10 mg/ml of cationic lipid (cholesterol is a neutral lipid that is not counted for calculation of lipid dispersion concentration or later for charge ratio with DNA) and allowed to hydrate at 70 C for 1 hr. The lipid dispersion was extruded through 100 nm pore carbonate membranes (Avanti Polar Lipids Inc) or vortexed for 1 min at room temperature.
Forty microgram of pCILuc was dissolved in 100 μl of 10% glucose and mixed by hand with different amount of lipids dispersion dissolved in 100 μl distilled H2O. The final concentration of Glucose is 5%. The mixing was performed by added the DNA solution to the lipid solution. The charge ratio of lipids to DNA in this mixture was indicated in the text. 200 μl of DNA/lipid complex solutions was injected into mouse tail vein. Each group had 3-5 mice. Five hours later, mice were sacrificed. […] Luciferase activity was determined by using luciferase assay system kit from Promega. […]

Data set [4] deals with BL-6 cells. Format: cell-based. The settings on record: polylysine core complexes; FIG. 8.
For data set [5], the system named is CHO (Sst2) cells. The experiment in a line: Transfection of CHO (Sst2) cells with peptide ligand complexes, luciferase. In kind it is cell-based. The settings on record: polylysine core complexes; FIG. 26. The text has this:
K14RGD peptide containing the amino acid sequence: KKK KKK KKK KKK KKS CRG DC (SEQ ID NO:5) with at least 90% purity was synthesized at Alpha Diagnostic International (San Antonio, Tex.). Peptide K14SMT contains the amino acid sequence: KKK KKK KKK KKK KKA d-FCY d-WKT CT (SEQ ID NO:6), and peptide K14MST contains the amino acid sequence KKK KKK KKK KKK KKA TDC RGE CF (SEQ ID NO:7). Both SMT and MST peptides were synthesized at Genemed Synthesis Inc (CA, South San Francisco) and oxidized to make circularized peptide. The peptide was purified to 90% purity by the provider. CHO (Sst+) cell line was obtained from Novartis Oncology (Dr. Friedrich Raulf). The cell line was selected to stable express human somatostatin receptor Sst2.
10000 CHO (Sst2) cells were cultured in a serum-containing medium with 0.4 mg/ml G418 for 12 hr before transfection in each well of a 96 well plate. The medium was changed to a serum free medium before transfection. Peptide was added to the cell at indicated amounts from 1 ug to 10 ug/well and incubated for 30 min before 0.5 ug pCIluc2 was added to the same medium to transfect the cells. Lipofectin at 4 ul was used as the control.
(§2) At 24 hr, luciferase activity was measured with Promega luciferase assay kit according to the recommended procedure.

Data set [6] has as its system HUVEC cells. In words: Transfection of HUVEC cells with K14RGD/Lipofectin complexes, luciferase. Format: cell-based. The note with it: added to lipofectin core complexes; FIG. 25. The protocol: 20000 HUVEC cells were seeded to each well of a 96 well plate and cultured for 12 hr before transfection. 0 or 2 ug of K14RGD peptide was mixed with indicated amount of Lipofectin from 0.1 ul to 4 ul in 50 ul of serum free medium for 15 min. The mixture was added to 50 ul serum free medium containing 0.5 ug pCIluc2 DNA. The poly-lipoplex was incubated for 30 min before added to the cells. The transfection solution was removed after 3 hr and serum-containing medium was added to the cells.
as §2

For the compound `CCNCCCNCCCCNCCCNCC` [CGP 41660A], the “Zeta Potential” value in data set [1] (charge ratio (+/−) 0.5) is −40.9; in data set [1] (charge ratio (+/−) 1.0), −8.72; in data set [1] (charge ratio (+/−) 1.5) it was −7.67; in data set [1] (charge ratio (+/−) 2.0), −7.08; in data set [1] (charge ratio (+/−) 3.0), −5.03; in data set [1] (charge ratio (+/−) 4.0) it was −4.87. For the same compound, the “Particle Size” value was 136 nm in data set [2] (charge ratio (+/−) 0.5); 62.6 nm in data set [2] (charge ratio (+/−) 1.0); 93.4 nm in data set [2] (charge ratio (+/−) 1.5); 573.5 nm in data set [2] (charge ratio (+/−) 2.0); 987.4 nm in data set [2] (charge ratio (+/−) 3.0); 4959 nm in data set [2] (charge ratio (+/−) 4.0).

Turning to `C(CNCCC1CCCCN1)CNCCC1CCCCN1` (stereo not shown) [CGP 61670A], the “Zeta Potential” value in data set [1] (charge ratio (+/−) 0.5) is reported as −17.6; in data set [1] (charge ratio (+/−) 1.0), −15.4; in data set [1] (charge ratio (+/−) 1.5), −9.1; in data set [1] (charge ratio (+/−) 2.0), −8.71; in data set [1] (charge ratio (+/−) 3.0), −6.01; in data set [1] (charge ratio (+/−) 4.0), −5.52. In addition, the “Particle Size” value in data set [2] (charge ratio (+/−) 1.0) came to 77.6 nm; in data set [2] (charge ratio (+/−) 1.5), 192.4 nm; in data set [2] (charge ratio (+/−) 2.0), 293.3 nm; in data set [2] (charge ratio (+/−) 3.0), 3946.4 nm; in data set [2] (charge ratio (+/−) 4.0), 4304.7 nm.

Regarding `CCN(CCCNCCCNCN(CC)C(=O)CN)C(=O)CN` [CGP 61750A], the “Zeta Potential” value is reported as −47.3 in data set [1] (charge ratio (+/−) 0.5); −30 in data set [1] (charge ratio (+/−) 1.0); −25 in data set [1] (charge ratio (+/−) 1.5); −17.1 in data set [1] (charge ratio (+/−) 2.0); −11.7 in data set [1] (charge ratio (+/−) 3.0); −9.78 in data set [1] (charge ratio (+/−) 4.0). Also, the “Particle Size” value in data set [2] (charge ratio (+/−) 0.5) was 176.7 nm; in data set [2] (charge ratio (+/−) 1.0), 77.6 nm; in data set [2] (charge ratio (+/−) 1.5), 90.3 nm; in data set [2] (charge ratio (+/−) 2.0), 206.8 nm; in data set [2] (charge ratio (+/−) 3.0) it was 1941.8 nm; in data set [2] (charge ratio (+/−) 4.0), 2526.8 nm.

For the compound `CCCCCCCC/C=C\CCCCCCCC(=O)OCCOCC(OCCO)C1OCC(OCCO)C1OCCO` (stereo not shown) [Tween 80], the “gene transfer in vivo, effect of additive” value in data set [3] is “improved”.

In the case of “GLF GAI EGF IEN GWE GWI DGW YGC KCK KKK KKK KKK KKK K [Example K14-Fuso]”, the “expression, effect of fusogenic peptide” value in data set [4] is “increased expression”.

In the case of KKK KKK KKK KKK KKA TDC RGE CF [MST], the “expression, effect of peptide ligand” value in data set [5] is reported as “not observed”.

With “KKK KKK KKK KKK KKA d-FCY d-WKT CT [SMT]”, the “expression, effect of peptide ligand” value in data set [5] is “increased expression”.

In the case of “KKK KKK KKK KKK KKS CRG DC [Example K14RGD]”, the “expression, effect of peptide ligand” value in data set [6] was “increased expression”.

The record behind these values is patent US20030166601A1, “Novel colloid synthetic vectors for gene therapy” (priority 1999, published 2003).
